# Legend:
# [1] = test system: C57/B16 mice treated with intratracheal bleomeycin; assay: Bleomycin induced murine pulmonary fibrosis model (lung sections, trichrome stain, body weight, survival); assay type: in vivo
# Description: Murine models of bleomycin induced fibrosis have been developed in order to study fibrotic disease progression.
# There is an absence of airway epithelium in lower left compared to upper left (see arrow heads) and extensive collagen deposition (lower left). On the sixth day, either saline (upper right) or ICG-001 (5 mgs/Kg/day) was administered for 10 days after which the mice were sacrificed and sectioned. Of interest is the upper right (saline treatment) showing lack of normal airway epithelialization, extensive collagen deposition and intra-airway hypercellularity (fibroblasts and inflammatory influx).
# S100A4 [2] = assay: RT-PCR for S100A4 in bleomycin treated mice; assay type: in vivo; conditions: ICG-001 5 mgs/Kg/day s.c.
# collagen 1A2 = assay: RT-PCR for collagen 1A2 in bleomycin treated mice; assay type: in vivo; conditions: ICG-001 5 mgs/Kg/day s.c.
# S100A4 [3] = assay: S100A4 expression in IPF patient fibroblasts (Western blot on whole cell lysates); assay type: cell-based, human
# Description: (§1) Western blots for S100A4 (also know as FSP-1 or fibroblast specific protein-1) and E-Cadherin were performed on whole cell lysates.
# E-Cadherin = E-Cadherin expression in IPF patient fibroblasts (Western blot on whole cell lysates); assay type: cell-based, human; conditions: RPMI 1640+10% FBS, 2 days
# Description: as §1
# [4] = target: β-catenin/CBP interaction (Homo sapiens, UniProt Q92793); conditions: cited from earlier work
# Sequence of β-catenin/CBP interaction (Q92793 whole entry): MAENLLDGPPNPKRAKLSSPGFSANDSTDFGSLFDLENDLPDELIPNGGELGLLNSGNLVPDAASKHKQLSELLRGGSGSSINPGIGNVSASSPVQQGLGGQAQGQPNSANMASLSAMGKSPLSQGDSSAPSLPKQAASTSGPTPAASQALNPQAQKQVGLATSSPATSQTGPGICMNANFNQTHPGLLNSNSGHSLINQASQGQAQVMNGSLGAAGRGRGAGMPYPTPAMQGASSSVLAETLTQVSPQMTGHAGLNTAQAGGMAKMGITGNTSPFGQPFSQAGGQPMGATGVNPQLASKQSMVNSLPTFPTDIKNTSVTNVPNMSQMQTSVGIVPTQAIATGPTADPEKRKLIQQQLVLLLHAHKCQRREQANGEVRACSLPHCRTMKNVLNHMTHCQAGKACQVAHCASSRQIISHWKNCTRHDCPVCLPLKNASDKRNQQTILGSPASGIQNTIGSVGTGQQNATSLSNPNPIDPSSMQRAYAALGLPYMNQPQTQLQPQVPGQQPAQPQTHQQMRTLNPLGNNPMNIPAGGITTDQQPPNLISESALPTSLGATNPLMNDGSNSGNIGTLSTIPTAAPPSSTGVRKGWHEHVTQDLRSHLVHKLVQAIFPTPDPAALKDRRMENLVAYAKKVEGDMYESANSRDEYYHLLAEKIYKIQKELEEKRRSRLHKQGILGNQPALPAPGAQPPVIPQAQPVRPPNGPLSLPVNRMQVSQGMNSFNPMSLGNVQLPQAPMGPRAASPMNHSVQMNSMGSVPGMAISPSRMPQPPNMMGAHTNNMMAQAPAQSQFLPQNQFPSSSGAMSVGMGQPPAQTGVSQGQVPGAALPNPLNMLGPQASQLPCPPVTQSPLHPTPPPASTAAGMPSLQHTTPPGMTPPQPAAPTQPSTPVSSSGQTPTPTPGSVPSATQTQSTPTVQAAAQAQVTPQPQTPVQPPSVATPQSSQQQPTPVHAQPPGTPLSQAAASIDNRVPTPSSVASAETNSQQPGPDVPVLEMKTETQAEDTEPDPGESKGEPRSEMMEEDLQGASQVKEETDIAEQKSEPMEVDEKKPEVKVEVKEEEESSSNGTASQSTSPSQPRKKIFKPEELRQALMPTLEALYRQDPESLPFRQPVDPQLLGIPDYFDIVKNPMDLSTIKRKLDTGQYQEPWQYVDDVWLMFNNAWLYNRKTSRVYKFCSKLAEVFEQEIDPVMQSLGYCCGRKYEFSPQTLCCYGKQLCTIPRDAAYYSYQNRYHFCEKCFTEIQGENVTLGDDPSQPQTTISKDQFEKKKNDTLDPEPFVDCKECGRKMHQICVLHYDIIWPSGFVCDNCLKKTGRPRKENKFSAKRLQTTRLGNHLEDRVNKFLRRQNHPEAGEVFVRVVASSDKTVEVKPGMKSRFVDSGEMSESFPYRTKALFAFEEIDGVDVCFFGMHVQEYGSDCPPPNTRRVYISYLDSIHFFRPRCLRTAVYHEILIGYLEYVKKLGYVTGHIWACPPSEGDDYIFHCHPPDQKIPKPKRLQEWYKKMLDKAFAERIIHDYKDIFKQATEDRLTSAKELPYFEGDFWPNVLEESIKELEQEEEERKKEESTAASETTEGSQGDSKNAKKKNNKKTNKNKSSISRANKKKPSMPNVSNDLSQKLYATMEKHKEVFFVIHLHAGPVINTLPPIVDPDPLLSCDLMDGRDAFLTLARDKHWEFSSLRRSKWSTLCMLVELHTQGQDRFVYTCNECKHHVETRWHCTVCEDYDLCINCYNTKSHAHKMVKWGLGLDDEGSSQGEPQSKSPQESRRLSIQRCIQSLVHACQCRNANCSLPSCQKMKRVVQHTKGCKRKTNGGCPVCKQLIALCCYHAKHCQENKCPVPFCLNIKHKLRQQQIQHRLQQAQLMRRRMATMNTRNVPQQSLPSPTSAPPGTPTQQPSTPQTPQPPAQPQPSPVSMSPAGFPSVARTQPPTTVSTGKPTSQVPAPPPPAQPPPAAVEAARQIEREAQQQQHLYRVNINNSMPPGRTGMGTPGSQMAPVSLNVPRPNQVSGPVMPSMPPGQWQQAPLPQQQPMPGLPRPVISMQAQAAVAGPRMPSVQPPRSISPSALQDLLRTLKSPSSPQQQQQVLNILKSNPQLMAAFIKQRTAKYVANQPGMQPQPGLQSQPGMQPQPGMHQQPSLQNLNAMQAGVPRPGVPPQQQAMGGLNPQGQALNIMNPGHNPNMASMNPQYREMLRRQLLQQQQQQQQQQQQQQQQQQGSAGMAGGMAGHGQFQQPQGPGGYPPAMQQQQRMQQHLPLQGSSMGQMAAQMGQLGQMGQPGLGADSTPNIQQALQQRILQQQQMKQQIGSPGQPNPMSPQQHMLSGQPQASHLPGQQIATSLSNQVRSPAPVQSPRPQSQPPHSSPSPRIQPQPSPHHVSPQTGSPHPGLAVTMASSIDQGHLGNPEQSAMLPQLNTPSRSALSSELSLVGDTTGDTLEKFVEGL
# [5] = bleomycin 5 days, then ICG-001 5 mgs/Kg/day for 10 days from the sixth day
# [6] = bleomycin 5 days, then ICG-001 5 mgs/Kg/day for 10 days, untreated controls did not
structure (smiles),measurement,setting,value
O=C1[C@H](Cc2ccc(O)cc2)N2C(=O)CCN(C(=O)NCc3ccccc3)[C@H]2CN1Cc1cccc2ccccc12 [ICG-001],airway appearance in lung sections,[1]; [5],essentially normal
same,collagen levels (trichrome stain),[1]; [5],normal collagen levels
same,body weight,[1]; [6],regained normal body weight
same,survival,[1]; [6],survived
same,"disease progression, as judged by reduced mortality, histopathology and endogenous gene expression","[1]; murine bleomycin model of pulmonary fibrosis, 5 mg/Kg/day",not only halts but reverses disease progression
same,S100A4 message (RT-PCR),S100A4 [2],reduced essentially to negative control
same,collagen 1A2 message (RT-PCR),collagen 1A2,reduced essentially to negative control
same,S100A4 expression at the mRNA level,S100A4 [3],this is also true at the mRNA level
same,S100A4 expression (Western blot),"S100A4 [3]; RPMI 1640+10% FBS, 2 days",decreased
same,E-cadherin expression (Western blot),E-Cadherin,increased
same,effect on β-catenin/CBP interaction,[4],selectively blocks

# Source: patent US7915251B2, “Alpha-helix mimetics and methods relating to the treatment of fibrosis” (Institute for Chemical Genomics, priority 2005, dated 2011)
